According to paper PMC5390247, “New method for quantification of gasotransmitter hydrogen sulfide in biological matrices by LC-MS/MS” (Scientific Reports, 2017):

Assays:
[1] = target: T1, yeast CSE enzyme (CYS3) (Saccharomyces cerevisiae, UniProt P31373); experiment: H2S production from SPRC by LC-MS/MS (sulfide dibimane); format: biochemical; settings: 473 uM PAG; 473 uM SPRC as substrate; complete inhibition stated in words
T1 construct: full-length CYS3 gene amplified from S288C gDNA, expressed in E. coli (pTrc-CYS3), nickel column, SUMO-tag cut off
T1 sequence (P31373 2-394): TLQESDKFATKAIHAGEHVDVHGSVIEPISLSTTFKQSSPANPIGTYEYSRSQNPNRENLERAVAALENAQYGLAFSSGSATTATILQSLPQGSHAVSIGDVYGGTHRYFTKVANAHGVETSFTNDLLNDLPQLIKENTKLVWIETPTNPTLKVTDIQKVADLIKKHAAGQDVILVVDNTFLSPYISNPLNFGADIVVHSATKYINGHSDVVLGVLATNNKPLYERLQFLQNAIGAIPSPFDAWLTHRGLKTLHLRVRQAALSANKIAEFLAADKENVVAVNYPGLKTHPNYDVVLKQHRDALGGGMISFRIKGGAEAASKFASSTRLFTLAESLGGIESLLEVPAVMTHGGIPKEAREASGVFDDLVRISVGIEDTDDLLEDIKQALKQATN

[2] = target: T1, yeast CSE enzyme (CYS3); experiment: H2S production by LC-MS/MS and substrate consumption; format: biochemical

Compound: C#CCC(N)C(=O)O (racemic) [PAG, propargylglycine]
- H2S production from SPRC by LC-MS/MS (sulfide dibimane) [1]: propargylglycine (PAG) completely inhibited the hydrogen sulfide production of CYS3 by using SPRC

Compound: N[C@@H](CCSC[C@H](N)C(=O)O)C(=O)O [CTT, L-cystathionine]
- H2S production by LC-MS/MS and substrate consumption ([2]; 473 uM CTT): hydrogen sulfide production increased rapidly whereas the amount of L-cystathionine (CTT) decreased accordingly

Compound: C#CCSC[C@H](N)C(=O)O [SPRC, S-propargyl-cysteine]
- H2S production by LC-MS/MS and substrate consumption ([2]; 473 uM SPRC): SPRC elimination was accomplished with increased level of hydrogen sulfide in the CYS3 mixture
